Assay results published in article PMC6704710, “Preclinical evaluation of 3D185, a novel potent inhibitor of FGFR1/2/3 and CSF-1R, in FGFR-dependent and macrophage-dominant cancer models” (Journal of Experimental & Clinical Cancer Research : CR, 2019).

Key:
Experiment in all cases: Eurofins kinase panel
Format in all cases: biochemical
Conditions in all cases: read-out: Inhibition rate (%)
ALK4(h) = biological target: T1, ALK4(h) (Homo sapiens, UniProt P36896)
T1 construct: purchased Eurofins (KinaseProfiler)
T1 sequence (P36896 24-505): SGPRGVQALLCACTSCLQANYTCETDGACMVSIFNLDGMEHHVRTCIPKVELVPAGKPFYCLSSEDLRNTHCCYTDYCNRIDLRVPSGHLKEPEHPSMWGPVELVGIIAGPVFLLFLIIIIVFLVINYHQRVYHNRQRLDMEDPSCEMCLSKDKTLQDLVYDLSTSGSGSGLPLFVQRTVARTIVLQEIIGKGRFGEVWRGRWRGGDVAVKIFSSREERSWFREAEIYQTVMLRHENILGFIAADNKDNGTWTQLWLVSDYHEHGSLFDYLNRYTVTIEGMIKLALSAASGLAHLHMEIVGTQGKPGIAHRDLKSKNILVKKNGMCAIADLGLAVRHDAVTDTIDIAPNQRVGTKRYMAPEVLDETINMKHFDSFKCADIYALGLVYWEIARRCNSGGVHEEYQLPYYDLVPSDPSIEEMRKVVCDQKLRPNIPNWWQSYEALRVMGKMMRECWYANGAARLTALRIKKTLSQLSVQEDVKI

CDK18/cyclinY(h) = biological target: T2, CDK18/cyclinY(h) (Homo sapiens, UniProt Q07002)
T2 construct: purchased Eurofins (KinaseProfiler)

CDK6/cyclinD3(h) = biological target: T3, CDK6/cyclinD3(h) (Homo sapiens, UniProt Q00534)
T3 construct: purchased Eurofins (KinaseProfiler)

HIPK2(h) = biological target: T4, HIPK2(h) (Homo sapiens, UniProt Q9H2X6)
T4 construct: purchased Eurofins (KinaseProfiler)

Met(Y1248D)(h) = biological target: T5, Met(Y1248D)(h) (Homo sapiens, UniProt P08581, Y1230D)
T5 construct: purchased Eurofins (KinaseProfiler)

[1] = biological target: T6, PI3 Kinase (p110δ/p85α)(h) (Homo sapiens, UniProt O00329)
T6 construct: purchased Eurofins (KinaseProfiler)

PKG1α(h) = biological target: T7, PKG1α(h) (Homo sapiens, UniProt Q13976)
T7 construct: purchased Eurofins (KinaseProfiler)
T7 sequence (Q13976 1-671): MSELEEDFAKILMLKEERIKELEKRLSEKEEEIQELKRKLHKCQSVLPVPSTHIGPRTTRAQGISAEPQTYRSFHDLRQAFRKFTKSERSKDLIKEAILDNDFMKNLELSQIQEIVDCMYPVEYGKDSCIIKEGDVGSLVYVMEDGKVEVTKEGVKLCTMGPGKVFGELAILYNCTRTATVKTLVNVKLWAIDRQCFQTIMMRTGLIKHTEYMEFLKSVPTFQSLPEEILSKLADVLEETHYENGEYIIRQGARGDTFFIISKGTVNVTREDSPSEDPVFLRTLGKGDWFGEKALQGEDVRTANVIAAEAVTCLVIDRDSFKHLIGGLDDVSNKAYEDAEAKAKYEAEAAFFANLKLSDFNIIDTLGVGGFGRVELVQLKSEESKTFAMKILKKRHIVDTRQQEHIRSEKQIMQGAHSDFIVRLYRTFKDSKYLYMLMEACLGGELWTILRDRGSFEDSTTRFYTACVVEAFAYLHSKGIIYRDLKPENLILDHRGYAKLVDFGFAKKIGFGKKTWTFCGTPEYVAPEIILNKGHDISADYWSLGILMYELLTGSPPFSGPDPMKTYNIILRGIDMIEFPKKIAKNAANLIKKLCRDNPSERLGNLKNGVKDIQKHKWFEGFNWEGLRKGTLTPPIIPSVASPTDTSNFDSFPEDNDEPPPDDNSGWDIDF

ROCK-I(h) = biological target: T8, ROCK-I(h) (Homo sapiens, UniProt Q13464)
T8 construct: purchased Eurofins (KinaseProfiler)

STK33(h) = biological target: T9, STK33(h) (Homo sapiens, UniProt Q9BYT3)
T9 construct: purchased Eurofins (KinaseProfiler)

Tie2(Y897S)(h) = biological target: T10, Tie2(Y897S)(h) (Homo sapiens, UniProt Q02763, Y897S)
T10 construct: purchased Eurofins (KinaseProfiler)
T10 sequence (Q02763 23-1124 Y897S): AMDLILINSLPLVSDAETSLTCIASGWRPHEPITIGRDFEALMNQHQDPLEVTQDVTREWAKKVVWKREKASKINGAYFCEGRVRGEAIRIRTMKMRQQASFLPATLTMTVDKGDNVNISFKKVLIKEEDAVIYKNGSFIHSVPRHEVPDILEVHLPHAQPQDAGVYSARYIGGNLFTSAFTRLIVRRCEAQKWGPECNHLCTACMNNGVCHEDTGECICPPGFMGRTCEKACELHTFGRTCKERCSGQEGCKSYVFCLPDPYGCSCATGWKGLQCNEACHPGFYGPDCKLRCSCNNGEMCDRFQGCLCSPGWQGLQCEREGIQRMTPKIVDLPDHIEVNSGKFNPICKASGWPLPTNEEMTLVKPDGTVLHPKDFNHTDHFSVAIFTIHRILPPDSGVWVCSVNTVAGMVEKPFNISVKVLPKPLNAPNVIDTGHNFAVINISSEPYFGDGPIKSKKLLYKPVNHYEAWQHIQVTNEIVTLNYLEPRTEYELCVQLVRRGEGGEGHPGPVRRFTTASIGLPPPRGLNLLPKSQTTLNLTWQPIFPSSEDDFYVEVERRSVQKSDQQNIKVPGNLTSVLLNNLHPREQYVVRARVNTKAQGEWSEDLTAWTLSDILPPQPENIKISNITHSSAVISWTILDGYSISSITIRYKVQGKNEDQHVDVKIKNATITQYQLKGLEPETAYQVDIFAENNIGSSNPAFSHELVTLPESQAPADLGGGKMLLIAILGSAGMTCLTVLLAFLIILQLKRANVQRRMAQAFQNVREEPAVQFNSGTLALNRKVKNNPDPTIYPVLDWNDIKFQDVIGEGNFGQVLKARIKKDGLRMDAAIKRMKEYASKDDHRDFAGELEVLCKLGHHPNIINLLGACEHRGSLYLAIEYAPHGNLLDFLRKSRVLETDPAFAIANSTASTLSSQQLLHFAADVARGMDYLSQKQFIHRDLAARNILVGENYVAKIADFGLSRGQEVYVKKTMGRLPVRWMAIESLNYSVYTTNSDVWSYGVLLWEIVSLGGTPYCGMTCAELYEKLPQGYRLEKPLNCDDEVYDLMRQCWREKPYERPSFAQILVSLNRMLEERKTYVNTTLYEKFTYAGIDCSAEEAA

T9 sequence (Q9BYT3 whole entry): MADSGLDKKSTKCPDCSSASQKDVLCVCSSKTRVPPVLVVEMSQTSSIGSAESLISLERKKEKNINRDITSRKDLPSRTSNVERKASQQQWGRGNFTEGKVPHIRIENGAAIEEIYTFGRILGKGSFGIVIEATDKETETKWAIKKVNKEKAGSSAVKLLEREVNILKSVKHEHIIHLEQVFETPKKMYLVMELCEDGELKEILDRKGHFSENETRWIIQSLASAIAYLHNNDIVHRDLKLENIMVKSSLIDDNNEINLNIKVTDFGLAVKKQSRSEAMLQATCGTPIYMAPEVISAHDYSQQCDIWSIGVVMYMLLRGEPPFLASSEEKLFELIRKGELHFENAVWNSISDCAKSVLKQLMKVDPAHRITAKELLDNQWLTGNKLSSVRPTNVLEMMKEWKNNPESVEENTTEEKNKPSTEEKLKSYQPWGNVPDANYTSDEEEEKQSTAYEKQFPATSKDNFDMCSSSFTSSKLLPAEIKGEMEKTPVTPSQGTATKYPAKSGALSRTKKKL
T3 sequence (Q00534 whole entry): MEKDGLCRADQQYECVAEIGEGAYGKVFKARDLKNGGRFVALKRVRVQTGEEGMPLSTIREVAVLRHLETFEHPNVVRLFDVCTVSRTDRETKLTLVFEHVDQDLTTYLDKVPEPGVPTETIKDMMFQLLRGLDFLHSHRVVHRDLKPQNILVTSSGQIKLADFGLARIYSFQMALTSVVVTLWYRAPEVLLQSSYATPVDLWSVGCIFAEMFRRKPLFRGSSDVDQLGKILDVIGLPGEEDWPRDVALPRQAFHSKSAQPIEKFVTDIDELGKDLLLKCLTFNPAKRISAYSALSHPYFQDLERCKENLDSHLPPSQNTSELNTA
T3 sequence (P30281 whole entry partner): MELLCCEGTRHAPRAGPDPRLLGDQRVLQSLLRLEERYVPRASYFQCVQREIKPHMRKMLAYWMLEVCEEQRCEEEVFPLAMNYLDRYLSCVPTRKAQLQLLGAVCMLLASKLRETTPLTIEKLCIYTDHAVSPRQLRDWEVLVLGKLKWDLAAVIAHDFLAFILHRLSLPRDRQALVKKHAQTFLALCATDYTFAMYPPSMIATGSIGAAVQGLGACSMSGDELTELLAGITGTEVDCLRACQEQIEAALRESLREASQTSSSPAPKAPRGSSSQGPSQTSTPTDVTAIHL
T5 sequence (P08581 956-1390 Y1230D limits assumed): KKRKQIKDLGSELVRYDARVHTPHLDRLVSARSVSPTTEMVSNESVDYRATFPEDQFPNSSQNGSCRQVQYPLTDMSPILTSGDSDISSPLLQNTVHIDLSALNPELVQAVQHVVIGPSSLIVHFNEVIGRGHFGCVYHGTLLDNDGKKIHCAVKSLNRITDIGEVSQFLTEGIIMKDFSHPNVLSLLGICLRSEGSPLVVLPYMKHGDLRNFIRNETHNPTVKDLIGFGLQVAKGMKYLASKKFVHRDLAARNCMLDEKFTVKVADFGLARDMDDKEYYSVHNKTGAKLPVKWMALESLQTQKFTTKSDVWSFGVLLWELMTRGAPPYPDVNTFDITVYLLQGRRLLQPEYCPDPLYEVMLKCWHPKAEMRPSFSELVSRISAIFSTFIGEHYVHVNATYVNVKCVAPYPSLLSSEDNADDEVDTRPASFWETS
T2 sequence (Q07002 whole entry): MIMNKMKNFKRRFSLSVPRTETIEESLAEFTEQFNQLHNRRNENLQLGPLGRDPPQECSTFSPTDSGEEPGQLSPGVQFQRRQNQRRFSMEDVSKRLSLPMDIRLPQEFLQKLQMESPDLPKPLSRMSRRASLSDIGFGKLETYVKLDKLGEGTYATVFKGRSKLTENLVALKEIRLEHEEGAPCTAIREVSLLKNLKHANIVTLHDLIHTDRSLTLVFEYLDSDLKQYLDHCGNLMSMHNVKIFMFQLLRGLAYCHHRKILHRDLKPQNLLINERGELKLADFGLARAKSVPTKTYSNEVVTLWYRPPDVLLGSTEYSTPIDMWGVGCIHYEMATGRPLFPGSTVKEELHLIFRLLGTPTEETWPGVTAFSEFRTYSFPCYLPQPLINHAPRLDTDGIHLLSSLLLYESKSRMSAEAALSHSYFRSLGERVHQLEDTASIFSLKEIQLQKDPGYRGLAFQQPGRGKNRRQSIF
T2 sequence (Q8ND76 whole entry partner): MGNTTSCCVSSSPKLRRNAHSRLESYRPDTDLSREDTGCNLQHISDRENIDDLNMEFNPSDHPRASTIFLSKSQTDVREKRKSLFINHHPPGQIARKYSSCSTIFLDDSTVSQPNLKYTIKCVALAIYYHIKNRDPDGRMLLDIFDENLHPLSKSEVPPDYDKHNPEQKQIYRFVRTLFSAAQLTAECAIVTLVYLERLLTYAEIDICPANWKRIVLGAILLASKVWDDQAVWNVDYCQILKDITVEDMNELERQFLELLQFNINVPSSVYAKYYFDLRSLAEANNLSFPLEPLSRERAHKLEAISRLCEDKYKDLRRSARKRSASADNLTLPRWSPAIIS
T8 sequence (Q13464 whole entry): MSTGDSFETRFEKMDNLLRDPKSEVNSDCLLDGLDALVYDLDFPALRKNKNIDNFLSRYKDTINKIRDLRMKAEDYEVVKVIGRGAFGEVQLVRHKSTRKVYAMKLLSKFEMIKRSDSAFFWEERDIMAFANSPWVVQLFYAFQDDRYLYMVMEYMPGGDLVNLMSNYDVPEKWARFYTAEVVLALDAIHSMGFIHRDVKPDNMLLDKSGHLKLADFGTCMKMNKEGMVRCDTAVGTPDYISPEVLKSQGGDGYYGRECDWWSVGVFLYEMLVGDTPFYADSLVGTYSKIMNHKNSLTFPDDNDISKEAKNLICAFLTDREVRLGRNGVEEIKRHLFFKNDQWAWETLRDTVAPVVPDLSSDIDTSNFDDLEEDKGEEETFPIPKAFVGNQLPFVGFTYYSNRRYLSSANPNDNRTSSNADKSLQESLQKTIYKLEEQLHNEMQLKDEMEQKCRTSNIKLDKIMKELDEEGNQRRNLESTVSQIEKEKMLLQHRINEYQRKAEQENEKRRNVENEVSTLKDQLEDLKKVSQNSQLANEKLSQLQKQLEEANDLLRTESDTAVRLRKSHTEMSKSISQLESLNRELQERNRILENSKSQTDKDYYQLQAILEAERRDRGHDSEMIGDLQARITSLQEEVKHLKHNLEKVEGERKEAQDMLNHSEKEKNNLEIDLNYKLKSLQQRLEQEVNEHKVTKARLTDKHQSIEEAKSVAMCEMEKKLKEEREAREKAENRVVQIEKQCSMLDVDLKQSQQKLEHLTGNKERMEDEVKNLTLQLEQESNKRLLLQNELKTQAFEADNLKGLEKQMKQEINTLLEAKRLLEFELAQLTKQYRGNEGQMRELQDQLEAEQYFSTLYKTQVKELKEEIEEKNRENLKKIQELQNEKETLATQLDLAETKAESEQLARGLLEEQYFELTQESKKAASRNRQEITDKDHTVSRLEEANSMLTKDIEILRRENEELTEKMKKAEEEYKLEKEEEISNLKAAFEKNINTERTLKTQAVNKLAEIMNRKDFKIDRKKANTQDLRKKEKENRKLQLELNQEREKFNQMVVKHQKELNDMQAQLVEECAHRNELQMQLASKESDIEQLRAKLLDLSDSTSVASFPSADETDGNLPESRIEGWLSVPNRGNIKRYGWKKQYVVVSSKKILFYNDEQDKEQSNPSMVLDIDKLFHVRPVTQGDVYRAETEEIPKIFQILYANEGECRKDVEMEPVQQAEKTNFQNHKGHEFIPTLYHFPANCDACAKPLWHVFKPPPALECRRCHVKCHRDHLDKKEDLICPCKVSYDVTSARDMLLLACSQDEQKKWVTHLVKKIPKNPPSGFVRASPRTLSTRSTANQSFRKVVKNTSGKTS

Work on COc1cc(OC)c(Cl)c(-c2ccc3c(NC(=O)c4ccc(N5CCNC(C)(C)C5)cc4)n[nH]c3n2)c1Cl [3D185] yielded an inhibition at 0.01 µM (ALK4(h); 10 nM) of -4%, an inhibition at 0.1 µM (ALK4(h); 100 nM) of -7% and an inhibition at 1 µM (ALK4(h); 1000 nM) of 5%. It also gave an inhibition at 0.01 µM (CDK18/cyclinY(h); 10 nM) of 10%, an inhibition at 0.1 µM (CDK18/cyclinY(h); 100 nM) of 12% and an inhibition at 1 µM (CDK18/cyclinY(h); 1000 nM) of 15%. For the same compound, the inhibition at 0.01 µM (CDK6/cyclinD3(h); 10 nM) was 9%, the inhibition at 0.1 µM (CDK6/cyclinD3(h); 100 nM) was 15% and the inhibition at 1 µM (CDK6/cyclinD3(h); 1000 nM) was 16%. It also gave an inhibition at 0.01 µM (HIPK2(h); 10 nM) of 3%, an inhibition at 0.1 µM (HIPK2(h); 100 nM) of 6% and an inhibition at 1 µM (HIPK2(h); 1000 nM) of -10%. It also gave an inhibition at 0.01 µM (Met(Y1248D)(h); 10 nM) of -12%, an inhibition at 0.1 µM (Met(Y1248D)(h); 100 nM) of -1% and an inhibition at 1 µM (Met(Y1248D)(h); 1000 nM) of 18%. For the same compound, the inhibition at 0.01 µM ([1]; 10 nM) was 1%, the inhibition at 0.1 µM ([1]; 100 nM) was -4% and the inhibition at 1 µM ([1]; 1000 nM) was 5%. It also gave an inhibition at 0.01 µM (PKG1α(h); 10 nM) of -1%, an inhibition at 0.1 µM (PKG1α(h); 100 nM) of -2% and an inhibition at 1 µM (PKG1α(h); 1000 nM) of 1%. For the same compound, the inhibition at 0.01 µM (ROCK-I(h); 10 nM) was -2%, the inhibition at 0.1 µM (ROCK-I(h); 100 nM) was -12% and the inhibition at 1 µM (ROCK-I(h); 1000 nM) was -3%. For the same compound, the inhibition at 0.01 µM (STK33(h); 10 nM) was 3%, the inhibition at 0.1 µM (STK33(h); 100 nM) was 9% and the inhibition at 1 µM (STK33(h); 1000 nM) was 13%. The inhibition at 0.01 µM (Tie2(Y897S)(h); 10 nM) was 14%, the inhibition at 0.1 µM (Tie2(Y897S)(h); 100 nM) was 39% and the inhibition at 1 µM (Tie2(Y897S)(h); 1000 nM) was 88%.
